Source: patent US20070248540A1, “Biochemical methods for measuring metabolic fitness of tissues or whole organisms” (The Regents of the University of California, priority 2002, published 2007)
Values joined by “and” are separate entries in the source; they are usually repeats but may differ in a detail not shown here. Identical values can stand only once. Like-named read-outs stand apart in the source and are kept apart here.

Experiments:
[1] = Body ^2H2O enrichment (saliva samples) in subjects ingesting 70% ^2H2O over eight weeks; type: in vivo; details: individual human subjects; oral 70% ^2H2O, eight-week study; one value per subject (251498, 251515, 251598, 251748, 251771)
Description: The protocol for incorporation of ^2H into human mitochondrial DNA from muscle biopsy samples is illustrated in the experimental design of FIG. 3d. Five human subjects enrolled as out-patients ingested 70 ml of 70% ^2H2O three times a day for 5 days then twice a day for 5 days; then ingested 50 ml twice a day thereafter for the remainder of the eight-week study period. Every two weeks, subjects gave a saliva sample (for measurement of body ^2H2O enrichment). At week 8, an open muscle biopsy was performed under surgical conditions. Mitochondria were isolated from excised muscle tissue (1 g) by ultracentrifugation, using methods well known in the art. Isolation of mitochondrial (mt) DNA and phospholipids (PL) were by procedures well known in the art. Measurement of fractional synthesis of mt PL was as described in the general methods, supra and in Collins et al., supra. Measured ^2H-incorporation (EM1=excess abundance of M+1 mass isotopomer of the molecule) and fractional synthesis (f) of mt DNA and mt PL are shown in Table 1.

[2] = Toxicity on long-term maintenance of ^2H2O body water enrichment in humans; type: in vivo, human; details: body water enrichment 1-10% (0.5%-15%) maintained for weeks or months; >100 people
Excerpt: (§1) Relatively high body water enrichments of ^2H2O (e.g., 1-10% of the total body water is labeled) may be achieved using the techniques of the invention. Water enrichments of ^2H2O of 0.5%-15% may also be achieved using the techniques described herein. […] This finding in a large number of human subjects (>100 people) is contrary to previous concerns about vestibular toxicities at high doses of ^2H2O. Applicant has discovered that as long as rapid changes in body water enrichment are minimized (e.g., by initial administration in small, divided doses), high body water enrichments of ^2H2O can be maintained with a minimum toxicities. For example, the low expense of commercially available ^2H2O allows long-term maintenance of enrichments in the 1-5% range at relatively low expense (e.g., calculations reveal a lower cost for 2 months labeling at 2% ^2H2O enrichment, and thus 7-8% enrichment in the alanine precursor pool, than for 12 hours labeling of ^2H-leucine at 10% free leucine enrichment, and thus 7-8% enrichment in leucine precursor pool for that period).

[3] = in vivo
Excerpt: as §1

[2H]O[2H] [^2H2O, deuterated water]
Body ^2H2O (%) [1]: 0.5% and 1.7% and 1.1% and 2.0% and 1.0%
evidence of toxicity [2]: without any evidence of toxicity
evidence of toxicity [3]: without any evidence of toxicity
